Measured values reported in patent publication US20250289812A1, “COMPOUND FOR TREATING THROMBOTIC DISEASES” (SHANGHAI INSTITUTE OF MATERIA MEDICA, CHINESE ACADEMY OF …, priority 2020, published 2025).

How the values were obtained:
[1] = target: Src kinase SH3 domain protein (Homo sapiens (Human), UniProt P12931); assay: Surface plasmon resonance (SPR) determination of dissociation constants with SH3 protein; assay type: binding; settings: SH3 protein coupled to CM5 chip
Method: 1. Experimental method: Surface plasmon resonance test was carried out on BIACORE T200 instrument (GE Company). Fresh purified grade Src kinase SH3 domain protein (concentration 2 mg/ml) was diluted to 0.1 mg/ml with 10 mM CH3COONa (pH 4.2) and then SH3 protein was coupled to the CM5 chip by standard amino coupling methods. The compounds of the invention were diluted in a gradient using a buffer solution (20 mM Tris-HCl, PH 8.0, 100 mM NaCl) for 60 seconds and dissociated for 120 seconds at a flow rate of […], respectively. The changes in response values over time were recorded and analyzed by the BIA Evaluation Software (GE Healthcare) program to obtain the dissociation constants KD for the different compounds with SH3 protein.
2. Experimental results and conclusions: The dissociation constants KD of different compounds and SH3 protein were described in Table 2, and the surface plasmon resonance (SPR) experimental results of some compounds were shown in FIG. 1.

[2] = test system: platelets on solid phase fibrinogen; assay: Effect of compound on platelet stretching on solid phase fibrinogen; assay type: cell-based; settings: 1 h, washed platelets, incubated 60 min at 37° C., read-out: Concentration range for compounds that inhibit platelet stretching on fibrinogen
Method: 1. Experimental method: Firstly, 50 μl fibrinogen (0.1M, diluted with pH 8.3 sodium bicarbonate, 20 μg/ml) was added to 96-well plate, and coated overnight at 4° C. After being washed by PBS for 3 times in the morning, sealed with bovine serum albumin (20 mg/ml) at 37° C. for 60 min, then 100 μl of washed platelet suspension was taken, and added into compounds in each group to make the final concentration 250 μM, and incubated at 37° C. for 60 min. 50 μl of incubated platelets were added to 96-well plate, adhered in a temperature box at 37° C. for 60 min, unadhered platelets were removed by PBS washing for 3 times, and adhered platelets were stably fixed with 4% paraformaldehyde, and washed with PBS for 3 times. Then the platelet membrane was perforated with 0.5% Triton X-100, and then the platelet was stained with 0.5 μg/ml phalloidin-rhodamine for 60 min at 37° C. and washed 3 times (10 min each) with PBS.
2. Experimental results and conclusions: The concentration of different compounds on platelet stretching on fibrinogen was shown in Table 3, and the inhibitory effect of some compounds on platelet stretching was shown in FIG. 2.

Chain of Src kinase SH3 domain protein (P12931 whole entry, looked up, the tested form may be a part): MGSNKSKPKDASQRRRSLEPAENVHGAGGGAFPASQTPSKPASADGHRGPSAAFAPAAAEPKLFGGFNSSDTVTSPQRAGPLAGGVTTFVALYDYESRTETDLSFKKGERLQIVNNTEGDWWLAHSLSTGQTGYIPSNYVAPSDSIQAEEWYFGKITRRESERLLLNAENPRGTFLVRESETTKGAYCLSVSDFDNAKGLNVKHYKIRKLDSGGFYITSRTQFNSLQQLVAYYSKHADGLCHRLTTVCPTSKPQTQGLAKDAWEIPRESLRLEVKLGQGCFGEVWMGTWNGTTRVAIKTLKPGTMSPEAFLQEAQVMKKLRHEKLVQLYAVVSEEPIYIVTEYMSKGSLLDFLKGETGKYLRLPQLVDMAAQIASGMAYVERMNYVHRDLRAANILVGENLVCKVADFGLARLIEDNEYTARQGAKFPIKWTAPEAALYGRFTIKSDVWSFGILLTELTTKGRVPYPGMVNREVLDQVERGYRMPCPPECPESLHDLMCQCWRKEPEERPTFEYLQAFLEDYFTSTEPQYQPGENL

Row | Structure (SMILES) | Kd [1] [nM] | minimal effective concentration [2] [µM]
1 | CCOC(=O)c1c(CNC(=N)N)n(C(C)C)c2cc(-c3cccc4ccccc34)ccc12 [SYY-C079] | < 1000 | 10 to 100
2 | CCOC(=O)c1c(CNC(=N)N)n(C)c2cc(-c3cccc4cc(C)ccc34)ccc12 [SYY-C080] | < 1000 | 10 to 100
3 | CCOC(=O)c1c(CNC(=N)N)n(C)c2cc(-c3cccc4c(C)cccc34)ccc12 [SYY-C081] | < 1000 | 10 to 100
4 | CCOC(=O)c1c(CNC(=N)N)n(-c2ccccc2)c2cc(-c3cccc4ccccc34)ccc12 [SYY-C082] | < 1000 | 10 to 100
5 | CCOC(=O)c1c(CNC(=N)N)n(C)c2cc(-c3ccc(Cl)c4ccccc34)ccc12 [SYY-C083] | 1000 to 10000 | 100 to 250
6 | CCOC(=O)c1c(CNC(=N)N)n(C)c2cc(-c3cccc4c(Cl)cccc34)ccc12 [SYY-C084] | < 1000 | 10 to 100
7 | CCOC(=O)c1c(CNC(=N)N)n(C)c2cc(-c3cc(C)cc4ccccc34)ccc12 [SYY-C085] | < 1000 | 10 to 100
8 | CCOC(=O)c1c(CNC(=N)N)n(C)c2cc(C3=CCOc4ccccc43)ccc12 [SYY-C086] | < 1000 | 10 to 100
9 | CCOC(=O)c1c(CNC(=N)N)n(C)c2cc(-c3cccc4ccc(C)cc34)ccc12 [SYY-C087] | 10000 to 100000 | 100 to 250
10 | CCOC(=O)c1c(CNC(=N)N)n(C)c2cc(-c3c4c(cc5c3CCCC5)CCCC4)ccc12 [SYY-C088] | 10000 to 100000 | 100 to 250
11 | CCOC(=O)c1c(CNC(=N)N)n(C)c2cc(-c3cccc4c(F)cccc34)ccc12 [SYY-C089] | < 1000 | 10 to 100
12 | CCOC(=O)c1c(CNC(=N)N)n(C)c2cc(-c3cc(Cl)cc4ccccc34)ccc12 [SYY-C090] | 1000 to 10000 | 100 to 250
13 | CCOC(=O)c1c(CNC(=N)N)n(C)c2cc(-c3cccc4cccc(C)c34)ccc12 [SYY-C091] | < 1000 | 10 to 100
14 | CCOC(=O)c1c(CNC(=N)N)n(C)c2cc(-c3cc(F)cc4ccccc34)ccc12 [SYY-C092] | 10000 to 100000 | 100 to 250
15 | CCOC(=O)c1c(CNC(=N)N)n(C)c2cc(-c3cccc4cc(Cl)ccc34)ccc12 [SYY-C093] | < 1000 | 10 to 100
16 | CCOC(=O)c1c(CNC(=N)N)n(C)c2cc(-c3cccc4cccc(Cl)c34)ccc12 [SYY-C095] | 10000 to 100000 | 10 to 100
17 | CCOC(=O)c1c(CNC(=N)N)n(C)c2cc(-c3cccc4cccc(F)c34)ccc12 [SYY-C096] | < 1000 | 10 to 100
18 | CCOC(=O)c1c(CNC(=N)N)n(C)c2cc(-c3cccc4ccc(F)cc34)ccc12 [SYY-C097] | 10000 to 100000 | 10 to 100
19 | CCOC(=O)c1c(CNC(=N)N)n(C)c2cc(-c3cccc4cc(F)ccc34)ccc12 [SYY-C098] | < 1000 | 10 to 100
20 | CNC(=O)c1c(CNC(=N)N)n(C)c2cc(-c3cccc4ccccc34)ccc12 [SYY-C099] | < 1000 | 10 to 100
21 | CN(C)C(=O)c1c(CNC(=N)N)n(C)c2cc(-c3cccc4ccccc34)ccc12 [SYY-C100] | 1000 to 10000 | 100 to 250
22 | Cn1c(CNC(=N)N)c(C(N)=O)c2ccc(-c3cccc4ccccc34)cc21 [SYY-C101] | < 1000 | 10 to 100
23 | Cn1c(CNC(=N)N)c(C#N)c2ccc(-c3cccc4ccccc34)cc21 [SYY-C102] | < 1000 | 10 to 100
24 | CCOC(=O)c1c(CNC(=N)N)n(C)c2cc(-c3cccc4ccccc34)c(OC)cc12 [SYY-C103] | 1000 to 10000 | 100 to 250

Row | Structure (SMILES) | Kd [1] [nM] | minimal effective concentration [2] [µM]
25 | CCOC(=O)c1c(CNC(=N)N)n(C)c2cc(-c3cccc4ccccc34)c(Cl)cc12 [SYY-C104] | < 1000 | 10 to 100
26 | CC(=O)Nc1c(CNC(=N)N)n(C)c2cc(-c3cccc4ccccc34)ccc12 [SYY-C105] | < 1000 | 10 to 100
27 | CCOC(=O)c1c(CNC(=N)N)oc2cc(-c3cccc4ccccc34)ccc12 [SYY-C106] | 1000 to 10000 | 100 to 250
28 | CCOC(=O)c1c(CNC(=N)N)sc2ccc(-c3cccc4ccccc34)cc12 [SYY-C107] | < 1000 | 10 to 100
29 | CCOC(=O)c1c(CNC(=N)N)sc2cc(-c3cccc4ccccc34)ccc12 [SYY-C108] | 10000 to 100000 | 100 to 250
30 | CCOC(=O)c1c(CNC(=N)N)n(C)c2cc(-c3cccc4ccccc34)c(Br)cc12 [SYY-C109] | < 1000 | 10 to 100
31 | CCOC(=O)c1c(CNC(=N)N)n(C)c2cc(-c3cccc4ccccc34)c(OC3CCCC3)cc12 [SYY-C110] | < 1000 | 10 to 100
32 | CCOC(=O)c1c(CNC(=N)N)n(C)c2cc(-c3cccc4ccccc34)c(C3=CCCC3)cc12 [SYY-C111] | 1000 to 10000 | 100 to 250
33 | CCOC(=O)c1c(CNC(=N)N)n(C)c2cc(-c3cccc4ccccc34)c(C3CC3)cc12 [SYY-C112] | < 1000 | 10 to 100
34 | CCOC(=O)c1c(CNC(=N)N)n(C)c2cc(-c3cccc4ccccc34)c(C3CCCC3)cc12 [SYY-C113] | < 1000 | 10 to 100
35 | CCOC(=O)c1c(CNC(=N)N)n(C)c2cc(OC)c(-c3cccc4ccccc34)cc12 [SYY-C114] | 10000 to 100000 | 10 to 100
36 | CCOC(=O)c1c(CNC(=N)N)n(C)c2cc(OC3CCCC3)c(-c3cccc4ccccc34)cc12 [SYY-C115] | < 1000 | 10 to 100
37 | CCOC(=O)c1c(CNC(=N)N)n(C)c2cc(C3=CCCC3)c(-c3cccc4ccccc34)cc12 [SYY-C116] | < 1000 | 10 to 100
38 | CCOC(=O)c1c(CNC(=N)N)n(C)c2cc(C3CCCC3)c(-c3cccc4ccccc34)cc12 [SYY-C117] | 10000 to 100000 | 100 to 250
39 | CCOC(=O)c1c(CNC(=N)N)n(C)c2cc(Cl)c(-c3cccc4ccccc34)cc12 [SYY-C118] | < 1000 | 10 to 100
40 | CCOC(=O)c1c(CNC(=N)N)n(C)c2cc(Br)c(-c3cccc4ccccc34)cc12 [SYY-C119] | < 1000 | 10 to 100
41 | CCOC(=O)c1c(CNC(=N)N)n(C)c2cc(C3CC3)c(-c3cccc4ccccc34)cc12 [SYY-C120] | < 1000 | 10 to 100
42 | CCOC(=O)c1c(CNC(=N)N)sc2cc(-c3cccc4ccccc34)c(C3CCCC3)cc12 [SYY-C121] | 1000 to 10000 | 100 to 250
43 | CCOC(=O)c1c(CNC(=N)N)sc2cc(-c3cccc4ccccc34)c(C3CCCCC3)cc12 [SYY-C122] | < 1000 | 10 to 100
44 | CCOC(=O)c1c(CNC(=N)N)sc2cc(-c3cccc4ccccc34)c(C3=CCCC3)cc12 [SYY-C123] | 10000 to 100000 | 100 to 250
45 | CCOC(=O)c1c(CNC(=N)N)sc2cc(-c3cccc4ccccc34)c(C3=CCCCC3)cc12 [SYY-C124] | < 1000 | 10 to 100
46 | CCOC(=O)c1c(CNC(=N)N)sc2cc(-c3cccc4ccccc34)c(OC)cc12 [SYY-C125] | < 1000 | 10 to 100
47 | CCOC(=O)c1c(CNC(=N)N)sc2cc(-c3cccc4ccccc34)c(OC3CCCC3)cc12 [SYY-C126] | < 1000 | 10 to 100
